Source: patent US20230234920A1, “Azirine Containing Compounds as Anti-Angiogenesis Agents and a Process for the Preparation Thereof” (COUNCIL OF SCIENTIFIC & INDUSTRIAL RESEARCH, priority 2020, published 2023)

Tests used:
[1] = Intramuscular pharmacokinetic study of bulk compound 1 and chiral isomers; format: in vivo, male Sprague Dawley (SD) rats; details: IM 20 mg/kg
Method: In vivo pharmacokinetic study was performed in male Sprague Dawley (SD) rats (n=4). Intramuscular (IM) formulation of bulk of compound 1 as well as chiral isomer-1 and chiral isomer-2 was prepared by dissolving accurately weighed quantity of compound 1 (20 mg) in 1 mL of olive oil followed by vortexing for 2 min and sterilize through syringe filter. Blood samples were collected from the retro orbital plexus of rats under light ether anesthesia into microfuge tubes containing heparin as an anti-coagulant at 0.25, 0.5, 1, 3, 5, 7, 9, 24, 30, 48 and 72 hours post-dosing after intramuscular dose. Plasma sample was harvested by centrifuging the blood at 13000 rpm for 10 min on Sigma 1-15 K (Frankfurt, Germany) and stored frozen at −70±10° C. until bioanalysis. Each plasma sample (100 μl) was processed using protein precipitation method using 200 μl acetonitrile containing medicarpine as internal standard (I.S.) as protein precipitant, and 10 μl of the supernatant was injected for LC-MS/MS.

Balb/c mice = assay: Matrigel plug assay; format: in vivo
Method: (A) Post 7 days treatment of control (0.1% DMSO), sunitinib and Compound 1 at a given concentration, the mice was sacrificed and representative Matrigel plugs were excised and photographed. (B) Hemoglobin estimation was performed using drapkin's reagent and graph was plotted with data that are represented as mean±SEM from three independent experiments with significant difference from control at *p<0.05 using t-test analysis.
Compound 1 ability to modulate neovascularization was evaluated by matrigel plug assay, using mouse-VEGF and bFGF (R&D systems, Minneapolis) as stimulus. 300 μL of matrigel (Corning Inc., Corning, N.Y., USA) were allowed to liquefy at 4° C., supplemented with either VEGF […], bFGF […] and heparin (10 mg/mL) as a control or with sunitinib […] as a positive control. All groups and test groups having similar condition along with Compound 1 (750 nM) were carefully mixed with pre-chilled pipette tips to prevent aeration and gelatinization. […] Matrigel plugs were excised after photographs were taken and angiogenic response was evaluated by spectrophotometric measurement of hemoglobin content using the Drabkin's method according to the manufacturer's protocol (Cat no. D5941-6VL; Sigma, St. Louis, Mo.). Absorbance was measured at 540 nm and hemoglobin concentration was calculated.

HUVECs = assay: Wound healing (scratch) migration assay; format: cell-based, human; details: for wound closure: 12 h
Method: FIG. 4 represents In vitro wound closure assay showing effect of Compound 1 migration of HUVECs. (A) ECs were incubated with 2.5% FBS in the presence of VEGF, sunitinib and Compound 1 at the indicated concentrations for 24 h after linear scratched wounds were created in the confluent cells. Post treatment photographs were taken at 0 hr, 12 h and 24 h using an inverted microscope at 10×magnification. (B) Data were quantified using Image J software and graphs were plotted by calculating the % migration of that vehicle treated cells (control). Compound 1 inhibits the wound closure by ECs in a dose dependent manner. The values represent the mean±SEM from (n=3) independent experiments with significant difference compared from control at *p<0.05.
As per previous reports, some anti-angiogenic compounds also show anti-migratory effect by modulating the expression of proteins responsible for blood vessels formation. A Scratch was made to the confluent endothelial cells containing VEGF (50 ng/mL) and sunitinib (50 nM) as a positive and negative control respectively and Compound 1 at 250 nM and 125 nM as a test compound. […] This might contribute to its potent anti-angiogenic effect.
Endothelial cells were grown inside 6-well plate at a confluency rate of 90%. And then with the help of 200 μL tip a straight line scratch was made in the middle of the grown ECs. After giving a gentle wash with 1×PBS, control group received vehicle in 2.5% FBS media. VEGF at 50 ng/mL as a positive control and sunitinib at 50 nM concentration was used as a negative control. Compound 1 at a dose concentration of 250 nM and 125 nM were used onto the wounded cells to observe its anti-migratory effect. After 0 h, 12 h and 24 h of post treatment the wound closure area was observed and micrographed using an inverted microscope (Olympus, Centre Valley, Pa., USA) and were analysed by Image J software. Control well at 100% was used to express inhibition percentage and the assay was performed for three-five times independently.

[2] = male, Sprague-Dawley, rat, plasma, mean ± S.D., n = 4

Cl ([1]; mean ± S.D., n = 4): 3.4 ± 0.327 mL/min/kg | Vd ([1]; mean ± S.D., n = 4): 4.017 ± 0.868 L/kg | concentration at 0.25 h ([1]; male, Sprague-Dawley, rat, plasma, intramuscular, 0.25 h): 2910 ± 950 ng/mL | concentration at 0.5 h ([1]; male, Sprague-Dawley, rat, plasma, intramuscular, 0.5 h): 4440 ± 460 ng/mL | concentration at 1 h ([1]; male, Sprague-Dawley, rat, plasma, intramuscular, 1 h): 3930 ± 1200 ng/mL | concentration at 3 h ([1]; male, Sprague-Dawley, rat, plasma, intramuscular, 3 h): 3240 ± 240 ng/mL | concentration at 5 h ([1]; male, Sprague-Dawley, rat, plasma, intramuscular, 5 h): 2830 ± 320 ng/mL | concentration at 7 h ([1]; male, Sprague-Dawley, rat, plasma, intramuscular, 7 h): 2390 ± 530 ng/mL | concentration at 9 h ([1]; male, Sprague-Dawley, rat, plasma, intramuscular, 9 h): 3210 ± 810 ng/mL | concentration at 24 h ([1]; male, Sprague-Dawley, rat, plasma, intramuscular, 24 h): 1740 ± 240 ng/mL | concentration at 30 h ([1]; male, Sprague-Dawley, rat, plasma, intramuscular, 30 h): 1660 ± 230 ng/mL | concentration at 48 h ([1]; male, Sprague-Dawley, rat, plasma, intramuscular, 48 h): 262 ± 120 ng/mL | concentration at 72 h ([1]; male, Sprague-Dawley, rat, plasma, intramuscular, 72 h): 107 ± 10 ng/mL | AUC(0-inf) [1, 2]: 98600 ± 9400 ng·h/mL | half-life [1, 2]: 13.5 ± 1.7 h | AUC(0-t) ([1]; male, Sprague-Dawley, rat, plasma, mean ± S.D., n = 4, read-out: AUC0-72): 96400 ± 9850 ng·h/mL | Cmax ([1]; male, Sprague-Dawley, rat, plasma, mean ± S.D., n = 4, read-out: Cmax): 4620 ± 435 ng/mL | MRT ([1]; male, Sprague-Dawley, rat, plasma, mean ± S.D., n = 4, read-out: MRT): 18 ± 1.57 h | Tmax ([1]; male, Sprague-Dawley, rat, plasma, mean ± S.D., n = 4, read-out: Tmax): 0.667 ± 0.288 h
Structure (SMILES): CCOC(=O)C1N=C1CCc1ccc(OC)cc1 (racemic) [Compound 1, Ethyl 3-(4-methoxyphenethyl)-2H-azirine-2-carboxylate]
blood vessels formation through implanted Matrigel (Balb/c mice; 750 nM): significant reduction in blood vessels formation | hemoglobin concentration (Balb/c mice; 750 nM in Matrigel): 10 to 15 µg/mL | wound closure (HUVECs; 125 nM): 75% | wound closure (HUVECs; 250 nM): 60% | migration (HUVECs; 24 h): complete migration
